Test results taken from patent publication US7803910B2, “Soluble CD164 polypeptides” (Merck Serono S.A., priority 2005, dated 2010).

Assays:
female mice (Balb/c) = test: Dextran Sodium Sulfate-induced ulcerative colitis model; type: in vivo
Method: The DSS model of colitis mimics some aspects of the human affection such as macrophage infiltration and up regulation of inflammatory cytokines (i.e. TNFα, IL-1p, IL-6) in the colon mucosa.
Ulcerative colitis (UC) was induced in female mice (Balb/c, 20-22 g, Elevage Janvier) by Dextran Sodium Sulfate (DSS 4%) administered in drinking water (oral route). The mice had free access to DSS during 7 days. Body weight was determined daily. The severity of the UC was assessed by a clinical score estimating the constituency of the stool (0=firm, 1=loose, 2=diarrhea) and the presence of blood (0=no blood, 1=occult blood, 2=gross rectal bleeding). Seven days after the induction of the disease, the animals were sacrificed. The length and the weight of the colon were determined and the ratio Weight/Length/100 g body weight was calculated. The spleen weight was also determined. Blood was sampled to determine serum amyloid protein (SAA) using a specific ELISA.
Test substances or vehicle (PBS/0.02% BSA) was administered at days 3, 4, 5 and 6 after the induction of the UC. Enbrel® (1 mg/kg, sc) was used as reference compound. Three studies were performed as per the following table:
In Study 3, the content of IL-1β in the colon was also measured.

Balb/c mice = test: K/BxN serum transfer model of arthritis; type: in vivo; settings: 10 mg/kg sc once daily, 3 days per week
Method: This is a passive model of arthritis, induced by serum transfer of K/B×N mice (spontaneously develop arthritis) to naïve mice. This model depends on macrophages and neutrophils. Inflammatory cytokines such as TNFα and IL-1β play an important role in the development of the disease.
Eight week old Balb/c mice (Charles River) received by iv route 150 μl of K/B×N serum (Charles McKay, Australia), containing high level of auto-antibodies against glucose-6-phosphate isomerase. They evolved severe arthritis assessed with a clinical score (0-12) evaluating the presence of swelling, erythema, edema, joint rigidity and ankylosis. The final score was the sum of scores on individual paws. The swelling of ankle, fore paw and hind paw was measure using a caliper. The clinical score and the swelling were determined every day. Fourteen days after the induction of the disease blood was sampled to determine osteocalcin and the legs were removed and fixed in formalin for histology.
Enbrel® (10 mg/kg, sc, once daily, 3 days a week) was used as reference compound.

C3H mice = test: Concanavalin A-induced hepatitis in mice; type: in vivo; settings: 0.3 mg/kg, sc
Source text: Several sCD164 variants have been shown in vitro to inhibit secretion of certain cytokines by ConA-stimulated human peripheral blood mononuclear cells (PBMC), see Examples 2 and 3 above. Since cytokines play a crucial role in T-cell induced ConA induced liver hepatitis (Seino et al. 2001, Kusters, 1996; Toyonaga et al. 1994), the present model was used to further test the sCD164 variants.
Eighteen hours later, the animals were sacrificed and the blood was sampled. Serum levels of transaminases (alanine transaminase (ALAT), aspartate aminotransferase (ASAT)) were determined in serum using a clinical analyzer (Hitachi). Dexamethasone (0.3 mg/kg, sc) was used as reference.

[1] = system: LPS-induced TNF-α release; test: LPS induced TNF-α release animal model (Example 10); type: in vivo, C3H/HeN mice; settings: 0.1 mg/kg, sc, 15 minutes prior to LPS; plasma 90 minutes after LPS; p<0.001
Method: LPS(O111:B4; SIGMA) is injected (0.3 mg/kg, ip) in C3H/HeN mice (Charles River, France). Ninety minutes later blood is sampled and plasma TNF-α is determined using an ELISA kit (R&D). The CD164 variant to be tested and dexamethasone are diluted in PBS and injected (Sf-CD164 at 0.03, 0.1 and 0.3 mg/kg, iv; or dexamethasone at 0.1 mg/kg, sc) 15 minutes prior to LPS administration.

[2] = system: peritoneal recruitment of macrophages; test: Thioglycollate-induced leukocyte peritoneal recruitment assay; type: in vivo, C3H mice; settings: 1 mg/kg
Method: The effect of a sCD164 variant on immune cells recruitment was tested using the thioglycollate-induced leukocyte peritoneal recruitment assay. In this example the capacity of ssCD164-Fc (SEQ ID NO: 16) to decrease monocytes/macrophage recruitment was evaluated.
Forty-eight hours after the challenge, the animals were sacrificed and the lavage of the peritoneal cavity was conducted using 2×5 ml PBS-1 mM EDTA (+4° C.). After centrifugation (10 min at 3000 rpm), the pellet was resuspended in 1 ml PBS. The peritoneal cells were counted using a Beckman/Coulter counter. Dexamethasone (1 mg/kg), the anti-inflammatory compound was used as reference positive control.

[3] = Study 1, reference 1 mg/kg, ip (so in the source)

Enbrel® [reference compound]
body weight loss (female mice (Balb/c); [3]): not prevented
colon reduction, length (female mice (Balb/c); [3]): −24%
colon reduction, ratio weight/length (female mice (Balb/c); [3]): −29%
increase in serum amyloid protein A (female mice (Balb/c); [3]): −37%
splenomegaly (female mice (Balb/c); [3]): not prevented
clinical score (female mice (Balb/c); Study 1, reference 1 mg/kg, ip (so in the source), day 6): −23%
colon reduction, length (female mice (Balb/c); Study 2, 1 mg/kg, sc): −17%
colon reduction, ratio weight/length (female mice (Balb/c); Study 2, 1 mg/kg, sc): −31%
increase in serum amyloid protein A (female mice (Balb/c); Study 2, 1 mg/kg, sc): −36%
splenomegaly (female mice (Balb/c); Study 2, 1 mg/kg, sc): not improved
clinical score (female mice (Balb/c); Study 2, 1 mg/kg, sc, day 5): −21%
colon reduction, length (female mice (Balb/c); Study 3, 1 mg/kg, sc): −29%
colon reduction, ratio weight/length (female mice (Balb/c); Study 3, 1 mg/kg, sc): −33%
content of IL-1β in colon (female mice (Balb/c); Study 3, 1 mg/kg, sc): trended to reduce
serum amyloid A protein (female mice (Balb/c); Study 3, 1 mg/kg, sc): trended to reduce
splenomegaly (female mice (Balb/c); Study 3, 1 mg/kg, sc): −27%
body weight loss (female mice (Balb/c); Study 3, 1 mg/kg, sc, day 5): −83%
clinical score (female mice (Balb/c); Study 3, 1 mg/kg, sc, day 5): −38%
clinical score (female mice (Balb/c); Study 3, 1 mg/kg, sc, day 7): −30%
decrease of clinical score (Balb/c mice; Study 1): 25%
decrease of paw swelling (Balb/c mice; Study 1): 36%
decrease of serum osteocalcin (Balb/c mice; Study 1): 86%
decrease of clinical score (Balb/c mice; Study 2): 31%
decrease of paw swelling (Balb/c mice; Study 2): 38%
decrease of serum osteocalcin (Balb/c mice; Study 2): 64%

C[C@@H]1C[C@H]2[C@@H]3CCC4=CC(=O)C=C[C@]4(C)[C@@]3(F)[C@@H](O)C[C@]2(C)[C@@]1(O)C(=O)CO [Dexamethasone, reference compound]
reduction of the level of serum transaminases (C3H mice): 96%
inhibition of LPS-induced TNF-α release [1]: 72%
reduction of peritoneal recruitment of macrophages ([2]; iv): 94%
reduction of peritoneal recruitment of macrophages ([2]; sc): 61%
